Results on five molecules are retold here after patent US20240058349A1, “PI3K INHIBITORS FOR PROTECTION AGAINST GLUCOCORTICOID-INDUCED ATROPHY” (Northwestern University, priority 2020, published 2024).

The structures appear in SMILES notation.

Data set [1] deals with CEM cells. Put plainly: MTT cell viability / cytotoxicity assay in CEM cells. The class given is cell-based, human. As to conditions: for IC50: Homo sapiens, CCRF-CEM, MTT assay, after 24 h treatment. The procedure: (§1) Cell cultures. Acute lymphoblastic leukemia cell line CEM and mantle cell lymphoma cell line Granta were obtained from ATCC and cultured in RPMI-1640 (Thermo Fischer) with 10% FBS (HyClone), sodium piruvate (10 mM), HEPES (10 mM) and antibiotics (referred thereafter as complete medium; Thermo Fischer) (Ref 14; incorporated by reference in its entirety). Peripheral blood samples were collected from healthy volunteers. The ethical Committee of the Blokhin Cancer Research Center approved this study, written informed consents were provided. Mononuclear cell fraction was isolated by 1.077 g/ml Ficoll-Isopaque density-gradient centrifugation and cultured in the complete medium. Cells were pretreated with Rapa (0.1-5 uM), LY294002 (10-100 uM), WM (1-10 uM) and AZD8055 (0.1-2 uM) or vehicle for 6 h, then were treated for Dex (1-10 uM) or vehicle for 24-144 h as indicated.
(§2) Analysis of cell viability and apoptosis induction. Cell viability was assessed using the MTT assay as follows: cells were incubated at 37° C. for 3 h with 20 ul of MTT solution (5 mg/ml). Supernatant was discarded and 150 μL of 100% DMSO was added to each well. Optical density was measured at 495 nm using a microplate reader MultiScan MCC 340 (Labsystems). The IC50 values was calculated using Quest Graph IC50 Calculator free software. Isobolograms were constructed (Ref 15; incorporated by reference in its entirety). IC50 values of PI3K inhibitors or Dex as single agents were plotted as 1 on the x and y axes, respectively. Various concentrations of PI3K inhibitors and for Dex were combined. The IC50 values for each compound in the combination were calculated and plotted as a percentage of each single drug. The disposition of data points below, above or on the line of additivity indicates synergy, antagonism or additivity, correspondingly.
(§3) PI3K/Akt/mTOR inhibitors were developed as anti-cancer drugs. To assess whether and how PI3K/Akt/mTOR inhibitors interacted with Dex anti-lymphoma effects, experiments were conducted to evaluate the efficacy of the combined treatment in vitro using such readouts as cell viability (MTT test) and apoptosis (PARP cleavage and sub-G1-phase cell population determined by FACS).
Background: Tetrazolium dyes change colour on reduction, which living cells bring about.

Data set [2] concerns Granta cells. Put plainly: MTT cell viability / cytotoxicity assay in Granta cells. Type of data set: cell-based, human. The following applies: for IC50: Homo sapiens, MTT assay, after 24 h treatment. The procedure: as §1, §2, §3
The test system of data set [3] is Granta xenografts. Put plainly: Granta lymphoma xenograft tumor growth study. Type of data set: in vivo, nu/nu mice. The following applies: 27th day of treatment, vs control; i.p. every 48 h; LY294002 20 mg/kg, Rapa 5 mg/kg, Dex 1 mg/kg. The procedure: Xenograft tumor growth study. 10 million Granta cells in 200 ul BD Matrigel Matrix were subcutaneously injected into the right flank of 7 weeks old female nu/nu mice (Taconic). Animals were randomized and treated every 48 h with LY294002 (20 mg/kg), Rapamycin (5 mg/kg) of vehicle (30% PEG3350, 4% DMSO, 5% Tween 20 in PBS) followed by Dex (1 mg/kg) of vehicle (5% DMSO in PBS) 6 h later. Body weight was recorded twice a week. Tumor size was measured twice a week by digital calipers, drug interaction mode was calculated based on combination index method (Refs. 16,17; incorporated by reference in their entireties). Combination index (CI) of Dex+Rapa/LY294002 was calculated as ratio (observed fraction value of combination group)/(expected fraction value of combination group). The observed fractions were calculated as ratio (mean value of experiment)/(mean value of control), and the expected fractions values of combination effect between combined groups and single drug groups were calculated as expected fraction=(mean observed fraction of Dex)×(mean observed fraction of Rapa/LY294002). CI<1, CI=1 and CI>1 indicates a synergy, additive effect and antagonism, respectively.
Histological analysis and immunostaining. […] Ki67 and Caspase 3 were detected by immunostaining with antibodies to Ki-67 and Caspase-3 (Cell Signaling, San Jose, CA).
Morphometric analysis. Quantification of the epidermal width, dermal adipose thickness, bone thickness and cellularity of xenograft tissue was performed in sections stained with hematoxylin and eosin. At least 5 individual fields per slide of each individual sample/treatment (at least 50 images/treatment group) were analyzed using Axioplan2 microscope software (Carl Zeiss). […]
Animals were randomized to different treatment groups after tumor volume reached 50 mm3. […] All treatment regiments were only minimally toxic according to the steady increase in body weight monitored twice weekly (FIG. 11). Tumor volume was measured also twice a week (FIG. 12).

In data set [4] the test system is Dex-induced osteoporosis and skin atrophy. Put plainly: Glucocorticoid-induced osteoporosis (GIOP) and skin atrophy model. The class given is in vivo, BALB/c female mice. The procedure: Glucocorticoid-induced osteoporosis (GIOP). GIOP was induced as described (18) by i.p. injection of Dex (10 mg/kg) in 12 weeks old BALB/c female mice (“Stolbovaya”, Moscow region, Russia) every 48 h for 5 weeks. 6 h prior to Dex, animals were treated i.p. with LY294002 (20 mg/kg), Rapamycin (5 mg/kg) of vehicle (30% PEG3350, 4% DMSO, 5% Tween-20 in PBS). Body weight was recorded twice a week.
Histological analysis and immunostaining. Xenograft and skin samples were fixed in formaldehyde, embedded in paraffin, sections were stained with hematoxylin and eosin. The bone samples after formaldehyde fixation were decalcinated in decalcination buffer (0.5 M EDTA, 0.7 mM NaOH, pH=7.0) for 14 days, then washed with PBS twice and further processed according to standard histology protocol. Ki67 and Caspase 3 were detected by immunostaining with antibodies to Ki-67 and Caspase-3 (Cell Signaling, San Jose, CA).
Morphometric analysis. Quantification of the epidermal width, dermal adipose thickness, bone thickness and cellularity of xenograft tissue was performed in sections stained with hematoxylin and eosin. At least 5 individual fields per slide of each individual sample/treatment (at least 50 images/treatment group) were analyzed using Axioplan2 microscope software (Carl Zeiss). The epidermal, dermal adipose, or bone thickness and cell density in treated animals is presented as % to control animals.
To test whether REDD1 inhibitors protect against systemic atrophic effects of Gcs, a model of Gcs-induced osteoporosis in Balb/c female mice was used (18) to assess atrophy in both bone and skin induced by high-dose i.p. Dex injections (10 mg/kg) every 48 h for 5 weeks. LY294002 (20 mg/kg), Rapa (5 mg/kg) or vehicle were injected 6 h prior animal treatment with Dex.

For data set [5], the system named is REDD1. Put plainly: REDD1 mRNA/protein expression (Q-PCR, Western blot) in CEM and Granta cells. The class given is cell-based, human. The procedure:
as §1
(§4) Western blot analysis. Western blot analysis was performed (Ref 10; incorporated by reference in its entirety). The following antibodies were used: GR (H-300) (Santa Cruz Biotechnology, Dallas, TX), phospho-GR (Ser211), phospho-4E-BP1 (Thr37/46), phospho-Akt (Ser473), Akt, 4E-BP1, cleaved and full-length PARP, GAPDH, HDAC1 (Cell Signaling, San Jose, CA), REDD1 (Proteintech Group, Rosemont, IL).
RNA extraction and Q-PCR. […]

Data set [6] deals with GR. Kind of data set: GRE.Luciferase reporter assay (GR transactivation) in CEM and Granta cells. Type of data set: cell-based, human. The procedure:
Luciferase assay. GRE.Luc, NF-κB.Luc and control mCMV.Luc reporter cells were generated (Ref. 13; incorporated by reference in its entirety) using viral stocks obtained from Northwestern University SDRC DNA/RNA delivery Core. Luciferase activity was measured (Ref. 10; incorporated by reference in its entirety).
REDD1 is a GR target gene (Refs. 10,21; incorporated by reference in their entireties). To assess whether REDD1 inhibitors could modify GR function, LY294002, WM and AZD8055 effect on GR TA and TR was evaluated using CEM and Granta cells transduced with GRE.Luc and NF-kB.Luc reporters. […] Luciferase activity in both cell lines (FIG. 2A, C). […] Attenuation of GR TA was further confirmed by Q-PCR analysis of known GR-target genes including GR chaperone FKBP51 (Refs. 12,14; incorporated by reference in their entireties), mediator of Gcs anti-inflammatory effects GILZ (22,23), transcriptional activator KLF9 (24) and inhibitor of cytokine production MKP-1 (25) (FIG. 2B, D and FIG. 7A, B).
Background: Reporter assays use an easily measured gene product as a stand-in for the process of interest.

Data set [7] has as its system GR. Kind of data set: Western blot of GR nuclear translocation. Type of data set: cell-based, human. As to conditions: CEM and Granta cells; LY294002 50 uM, AZD8055 1 uM, Dex 1 uM 24 h. The procedure:
as §4
To identify the molecular mechanisms underlying GR functional changes induced by PI3K/Akt/mTOR inhibitors, the effect of these compounds on major steps in GR activation was assessed: GR phosphorylation at Ser211 and nuclear translocation that are critical for GR TA (Refs. 27,28; incorporated by reference in their entireties).
For orientation: A western blot detects proteins with antibodies after separation by electrophoresis.

In data set [8] the test system is CEM cells. Put plainly: Apoptosis induction (PI staining sub-G1, PARP cleavage) in CEM cells. The class given is cell-based, human. The procedure:
(§5) Apoptosis induction was evaluated using Western blot analysis of PARP cleavage and propidium iodine (PI) staining (Ref. 14; incorporated by reference in its entirety).
(§6) Cooperative anti-lymphoma effects of Dex and PI3K/Akt/mTOR inhibitors in vitro. PI3K/Akt/mTOR inhibitors were developed as anti-cancer drugs. To assess whether and how PI3K/Akt/mTOR inhibitors interacted with Dex anti-lymphoma effects, experiments were conducted to evaluate the efficacy of the combined treatment in vitro using such readouts as cell viability (MTT test) and apoptosis (PARP cleavage and sub-G1-phase cell population determined by FACS). The cytotoxic effect of Dex and PI3K inhibitors in wide concentration range (LY294002 1-500 uM, WM 0.1-25 uM, AZD8055 0.05-5 uM) was assessed (FIG. 8) and determined IC50 values after 24 h treatment (Table 8).
(§7) The effect of Dex combined with LY294002, AZD8055, WM or reference inhibitor Rapa was examined on apoptosis.

Data set [9] relates to Granta cells. Kind of data set: Apoptosis induction (PI staining sub-G1, PARP cleavage) in Granta cells. The class given is cell-based, human. The procedure:
as §5, §6, §7

Where [10] appears, read: used alone for 6 days, LY294002 50 uM, AZD8055 1 uM, WM 10 uM, Dex 1 uM.
Setting [11] is: systemic Dex 10 mg/kg every 48 h, 5 weeks, LY294002 20 mg/kg.
The mark [12] stands for this setting: combination with Dex, IC50 after 24 h treatment.

As to `C[C@@H]1C[C@H]2[C@@H]3CCC4=CC(=O)C=C[C@]4(C)[C@@]3(F)[C@@H](O)C[C@]2(C)[C@@]1(O)C(=O)CO` [Dexamethasone], the “decrease of CEM survival” value in data set [1] (setting [10]) was 50-55%. The “decrease of Granta survival” value in [2] (setting [10]) is given as 50-55%. Further, in data set [3], the “decrease in tumor volume” value is reported as about 40%. The femoral bone thickness entry in data set [4] (Dex 10 mg/kg vs control) is on record as “tendency in decrease”. In data set [4] (setting [11]), the “reduction in dermal adipose thickness” value was about 70% and the “reduction in epidermal thickness” value is about 50%.

The IC50 is the point on the concentration scale where inhibition reaches its midpoint. Take `O=c1cc(N2CCOCC2)oc2c(-c3ccccc3)cccc12` [LY294002]: the IC50 was 62 µM in data set [1] and 77.6 µM in [2]. Also, the “decrease in tumor volume” value in data set [3] is recorded as about 70%.

Consider `COc1ccc(-c2ccc3c(N4CCOC[C@@H]4C)nc(N4CCOC[C@@H]4C)nc3n2)cc1CO` [AZD8055], for which the IC50 in [1] was 1.36 µM; in [2] it was 2.02 µM. For the same molecule, in data set [1] (setting [12]), the “type of interaction with Dex (isobologram analysis), CEM cells” value is reported as “mostly additive”. For the same molecule, the “type of interaction with Dex (isobologram analysis), Granta cells” value in [2] (setting [12]) is “mostly additive”. Further, the “effect on REDD1 induction by Dex” value in data set [5] (CEM and Granta cells, 6 h pre-treatment (LY294002 50 uM, WM 10 uM, AZD8055 1 uM), then Dex 24 h) is recorded as “prevented REDD1 induction”. Also, the “basal REDD1 expression” value in [5] (inhibitor without Dex, mRNA in CEM cells, protein more pronounced in Granta cells) is “blocked basal and glucocorticoid-induced REDD1 expression”. Besides, the “Dex-induced GRE.Luciferase activity” value in data set [6] (6 h pre-treatment, Dex 1 uM 24 h) is “inhibited Dex-induced GRE. Luciferase activity”. Also, the “basal GR activity (GRE.Luciferase)” value in [6] (applied individually) is on record as “negatively affected basal GR activity”. For the same molecule, the GR nuclear import result in data set [7] is “significantly prevented GR nuclear import”. The “apoptosis (sub-G1-phase cell population), used alone, CEM cells” value in data set [8] was “stimulated apoptosis”. In addition, the “apoptosis (sub-G1-phase cell population), used alone, Granta cells” value in data set [9] is “stimulated apoptosis”.

As for `CO[C@H]1C[C@@H]2CC[C@@H](C)[C@@](O)(O2)C(=O)C(=O)N2CCCC[C@H]2C(=O)O[C@H]([C@H](C)C[C@@H]2CC[C@@H](O)[C@H](OC)C2)CC(=O)[C@H](C)/C=C(\C)[C@@H](O)[C@@H](OC)C(=O)[C@H](C)C[C@H](C)/C=C/C=C/C=C/1C` [Rapamycin], in data set [3], the “decrease in tumor volume” value is given as about 75%.

Consider `COC[C@H]1OC(=O)c2coc3c2[C@@]1(C)C1=C(C3=O)[C@@H]2CCC(=O)[C@@]2(C)C[C@H]1OC(C)=O` [Wortmannin], for which the IC50 in data set [1] came to 9.14 µM; in data set [2], 11.9 µM.
